Reference: US9314458B2, “Topical use of ingenol-3-angelate or a salt thereof to treat skin cancer” (LEO Laboratories Limited, priority 2000, dated 2016)
Blank lines part the entries; values can stand above or below the compound they belong to.

Columns and labels:
HIV-strain pNL4-3 = assay: HIV-1 replication in acutely infected PBMC (CA-p24 ELISA); type: cell-based; settings: 2.8 nM
Method: Experiments were conducted to assess the effect of the compounds of the instant invention on HIV-1 replication in acutely infected T cells. Peripheral blood mononuclear cells (PBMC) were obtained from non-HIV-1, non-HIV-2, non-Hepatitis B/C infected donors, stimulated with phytohemagglutinin-M and grown in culture media supplemented with 10 U/mL interleukin-2. The activated PBMC were infected with […] (Low Titre) and 100 ng (High Titre) of CA-p24 equivalents of the HIV-strain pNL4-3. Cells were infected for two hr after which, the virus was removed and the cells were washed with culture media. Equivalent numbers of cells were seeded into 24 well plates and compounds were added to the cultured cells that included: TPA at 8 nM and 80 nM, Ingenol at 280 nM, PEP003 at 500 nM, 50 nM and 5 nM, or PEP004 at dilutions of 1×10^4 and 1×10^5 from the stock (final concentrations). In addition, uninfected activated PBMC were grown in the presence of TPA (80 nM), Ingenol (280 nM), PEP003 (500 nM) and PEP004 (1×10^4 dilution). Other cultures were neither infected nor treated with any compound, or infected but not treated with any compound. Supernatant was removed from each culture at day 0, 3, 7, and 10. The amount of HIV-1 CA-p24 was determined using a commercially available ELISA assay. Three independent experiments were performed.

adenovirus 5 = assay: Adenovirus replication in human melanoma cells; type: cell-based; settings: 2 days
Description: Human melanoma cells were infected with ten-fold dilutions of adenovirus 5 in culture, treated with dilutions of PEP005, PEP006, PEP008 and PEP010 and adenovirus replication determined 2 days later by immunhistochemical detection of virus-replicating cells.

PKCγ = target: T1, PKCγ (Homo sapiens, UniProt P05129); assay: EGFP-PKC translocation in HeLa cells (PKCγ); type: cell-based; settings: one hour, TPA 100 ng/mL, bryostatin-1 5 pg/mL, PEP003 2.25 μg/mL (5 μM), PEP005 670 μg/mL (1.5 μM)
T1 construct: host or cells: HeLa cells
Method: (§1) Five EGFP-PKC isoforms (Clontech) were available for this experiment, enabling the screening of the three predominant PKC families (i.e. classical, novel and atypical PKCs). The members of the various PKC families are α, β, and γ (classical), θ (novel) and ζ (atypical).
(§2) HeLa cells were plated out in a 24-well plate containing coverslips and transfected with PKC isoforms fused to EGFP, using a commercially available effectine-transfection kit (QIAGEN, Pty. Ltd.). Cells were exposed to the transfection reagents for 16-24 hr. Subsequently, transfected cells were treated for one hour with TPA (100 ng/mL), bryostatin-1 (5 pg/mL), PEP003 (2.25 μg/mL; 5 μM) or PEP005 ([…]) 1.5 μM). Following treatment, cells were fixed on coverslips and mounted on glass slides. The slides were subsequently examined visually by fluorescence microscopy, photographed, and over 150 cells were counted/treatment/PKC isoform. Counted cells were classified according to the localisation of the PKC-EGFP fluorescence as either cytoplasmic or plasma membrane using ImagePro™ 4.1 (FIG. 5). […] The number of these cells was also counted. Results are presented as an average and standard deviation of percentages of cells (Table 1).

[1] = tested on: peripheral blood mononuclear cells; assay: Phagocytosis with fluorescent beads; type: cell-based; settings: 30 min, whole heparinized blood
Method: Phagocytosis by peripheral blood mononuclear cells (PBMCs) was assayed (Steinkamp et al., 1982) using 1 μm Fluoresbrite™ yellow-green fluorescent latex spheres (Polysciences, Inc., Warrington, Pa.). A sample of whole, heparinized blood was treated with drug and 5×10E7 fluorescent latex beads in 10 μL of PBS added per mL of suspension. Cells were incubated and maintained in suspension for 30 min by means of a shaker platform at 37° C. The stimulated and non-stimulated samples were then lysed to isolate PBMCs. The PBMCs were run on the flow cytometer measuring FITC (excitation at 488 nm, emission at 525±20 nm), gated for fluorescence (phagocytosed spheres) and light scatter (cell size).

PKCα = target: T2, PKCα (Homo sapiens, UniProt P17252); type: cell-based; settings: HeLa, one hour; TPA 100 ng/mL, bryostatin-1 5 pg/mL, PEP003 2.25 μg/mL (5 μM)
T2 construct: host or cells: HeLa cells
Method: as §1
as §2, with “counted.” for “counted. Results are presented as an average and standard deviation of percentages of cells (Table 1).”

PKCβ = target: T3, PKCβ (Homo sapiens, UniProt P05771); assay: EGFP-PKC translocation in HeLa cells (PKCβ); type: cell-based; settings: one hour
T3 construct: host or cells: HeLa cells
Method: as §1, §2

PKCζ = target: T4, PKCζ (Homo sapiens, UniProt Q05513); assay: EGFP-PKC translocation in HeLa cells (PKCζ); type: cell-based; settings: one hour, same concentrations
T4 construct: host or cells: HeLa cells
T4 sequence (Q05513 1-592): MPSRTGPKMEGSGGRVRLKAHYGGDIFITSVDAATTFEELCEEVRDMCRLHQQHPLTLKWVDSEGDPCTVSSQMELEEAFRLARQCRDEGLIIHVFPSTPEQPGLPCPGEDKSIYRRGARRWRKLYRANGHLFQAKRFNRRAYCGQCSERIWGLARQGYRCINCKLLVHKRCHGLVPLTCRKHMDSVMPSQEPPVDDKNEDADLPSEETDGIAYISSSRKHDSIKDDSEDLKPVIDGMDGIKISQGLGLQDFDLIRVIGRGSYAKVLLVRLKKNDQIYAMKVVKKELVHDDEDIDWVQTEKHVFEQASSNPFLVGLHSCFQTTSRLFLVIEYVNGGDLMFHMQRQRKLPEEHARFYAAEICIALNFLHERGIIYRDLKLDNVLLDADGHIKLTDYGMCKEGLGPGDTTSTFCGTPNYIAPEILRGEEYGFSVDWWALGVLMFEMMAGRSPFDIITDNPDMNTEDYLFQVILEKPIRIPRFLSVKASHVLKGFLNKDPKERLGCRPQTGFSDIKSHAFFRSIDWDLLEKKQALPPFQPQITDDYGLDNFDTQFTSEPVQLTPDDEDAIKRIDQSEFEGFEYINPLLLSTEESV
Method: as §1, §2

PKCθ = target: T5, PKCθ (Homo sapiens, UniProt Q04759); assay: EGFP-PKC translocation in HeLa cells (PKCθ); type: cell-based; settings: one hour, same concentrations
T5 construct: host or cells: HeLa cells
Method: as §1, §2

[2] = tested on: MM96L human melanoma cells; assay: Leukocytes plus drug, killing of MM96L cells ([3H]-thymidine); type: cell-based; settings: 60 ng/mL, 48 hr, 100:1 effector:target
Method: (§3) Leukocytes obtained by lysis of human peripheral blood were added to 5000 MM96L human melanoma cells or 7000 neonatal foreskin fibroblasts per microtitre well at effector: target ratios of 1000, 100 and 10:1. Ing9 (60 ng/mL) was added and after 48 hr incubation the cultures were washed and labelled with [3H]-thymidine for 2 hr. […] Untreated leukocytes had no effect on cell survival.

[3] = tested on: neonatal foreskin fibroblasts; assay: Pretreated fibroblasts, killing by untreated leukocytes; type: cell-based, human; settings: targets pretreated with 60 ng/mL for 20 hr, 100:1 effector:target
Method: as §3, with “The target cells had been treated with 60 ng/mL PEP008 for 20 hr beforehand,” for “Ing9 (60 ng/mL) was added”, “washed and the medium replaced before the leukocytes were added. After” for “after”, “incubation with the leukocytes” for “incubation”

[4] = tested on: MM96L human melanoma cells; assay: Pretreated MM96L cells, killing by untreated leukocytes; type: cell-based; settings: targets pretreated with 60 ng/mL for 20 hr, 100:1 effector:target
Method: as §3, with “The target cells had been treated with 60 ng/mL PEP008 for 20 hr beforehand,” for “Ing9 (60 ng/mL) was added”, “washed and the medium replaced before the leukocytes were added. After” for “after”, “incubation with the leukocytes” for “incubation”

[5] = tested on: neonatal foreskin fibroblasts; assay: Leukocytes plus drug, killing of fibroblasts ([3H]-thymidine); type: cell-based, human; settings: 60 ng/mL, 48 hr, 100:1 effector:target
Method: as §3

[6] = tested on: Peripheral blood mononuclear cells (granulocytes, monocytes, lymphocytes); assay: Respiratory burst, DCFH-DA H2O2 flow cytometry; type: cell-based; settings: 15 min at 37° C.
Method: Experiments were also carried out using 2′,7′-dichlorofluorescein diacetate (DCFH-DA) to measure the production of H2O2. (J P Robinson, Oxidative burst methods, in Handbook of Flow Cytometry Methods, Wiley-Liss Inc, pp 147-149, 1993). H2O2 oxidizes the non-fluorescent probe (DCFH-DA) to a fluorescent probe that can then be detected by a flow cytometer. Peripheral blood mononuclear cells (PBMC) were extracted from a donor blood sample by lysis of heparinized blood and used in a suspension of 1×10^6/mL of phosphate buffer, pH 7.3. The cells were then incubated with DCFH-DA (1 μL/mL of 20 mM stock) for 15 minutes to allow it to be taken up and trapped by hydrolysis with cellular esterases. The cells were then stimulated by test compounds for 15 min at 37° C. Controls included in the experiment were unloaded control (cells with no DCFH-DA) and loaded control (cells with DCFH-DA, but no stimulation). These were used to monitor the non-specific oxidation of unstimulated cells. The cells were then analyzed on the flow cytometer (excitation at 488 nm, emission at 525±20 nm), gating each sample for individual cell populations—granulocytes, monocytes and lymphocytes (Table 3).

[7] = tested on: phorbol ester binding site of PKC; assay: [3H]-phorbol dibutyrate competition assay, rat brain homogenate
Method: A competition assay was performed to determine whether the diterpene esters of the instant invention bind to the phorbol ester binding site of PKC. […] This binding was not blocked by co-incubation with bisindolylmaleimide.

rat brain PKC = assay: PKC kinase activity, PepTag non-radioactive protein kinase assay; type: biochemical; settings: PepTag gel; various dilutions of TPA; ether extract final dilution 1 in 5; crude sap and aqueous layer diluted 1/25
Method: The kinase activity of rat brain PKC (Promega) was determined using the Peptag™ Non-Radioactive Protein Kinase Kit (Promega). Using agarose gel electrophoresis the technique visualises the opposing electrostatic charge of a fluorescently labeled peptide ([sequence]) compared to the phosphorylated version of the same peptide.
The reaction mixture was separated by gel electrophoresis, showing migration of the unreacted substrate (a) to the anode (top), and the product (b), which is more negatively charged because of phosphorylation by PKC, moving towards the cathode (bottom).

T3 sequence (P05771 whole entry, species assumed): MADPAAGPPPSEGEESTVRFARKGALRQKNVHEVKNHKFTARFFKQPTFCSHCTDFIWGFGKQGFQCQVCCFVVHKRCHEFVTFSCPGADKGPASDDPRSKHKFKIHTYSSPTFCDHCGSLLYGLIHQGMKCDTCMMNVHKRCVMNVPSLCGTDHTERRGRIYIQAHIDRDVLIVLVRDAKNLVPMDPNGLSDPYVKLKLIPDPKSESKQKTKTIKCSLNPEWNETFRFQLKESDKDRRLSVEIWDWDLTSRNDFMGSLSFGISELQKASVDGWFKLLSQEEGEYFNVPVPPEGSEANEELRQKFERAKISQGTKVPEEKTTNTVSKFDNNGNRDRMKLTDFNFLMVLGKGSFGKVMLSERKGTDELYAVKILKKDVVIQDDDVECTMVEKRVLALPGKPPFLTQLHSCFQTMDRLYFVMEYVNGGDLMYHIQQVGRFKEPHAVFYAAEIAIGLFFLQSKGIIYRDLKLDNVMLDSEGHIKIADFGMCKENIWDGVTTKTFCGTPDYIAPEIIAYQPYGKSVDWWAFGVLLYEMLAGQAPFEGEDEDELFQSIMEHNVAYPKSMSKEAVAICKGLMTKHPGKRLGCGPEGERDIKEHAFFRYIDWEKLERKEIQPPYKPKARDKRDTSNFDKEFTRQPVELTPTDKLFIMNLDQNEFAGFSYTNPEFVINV
T5 sequence (Q04759 whole entry): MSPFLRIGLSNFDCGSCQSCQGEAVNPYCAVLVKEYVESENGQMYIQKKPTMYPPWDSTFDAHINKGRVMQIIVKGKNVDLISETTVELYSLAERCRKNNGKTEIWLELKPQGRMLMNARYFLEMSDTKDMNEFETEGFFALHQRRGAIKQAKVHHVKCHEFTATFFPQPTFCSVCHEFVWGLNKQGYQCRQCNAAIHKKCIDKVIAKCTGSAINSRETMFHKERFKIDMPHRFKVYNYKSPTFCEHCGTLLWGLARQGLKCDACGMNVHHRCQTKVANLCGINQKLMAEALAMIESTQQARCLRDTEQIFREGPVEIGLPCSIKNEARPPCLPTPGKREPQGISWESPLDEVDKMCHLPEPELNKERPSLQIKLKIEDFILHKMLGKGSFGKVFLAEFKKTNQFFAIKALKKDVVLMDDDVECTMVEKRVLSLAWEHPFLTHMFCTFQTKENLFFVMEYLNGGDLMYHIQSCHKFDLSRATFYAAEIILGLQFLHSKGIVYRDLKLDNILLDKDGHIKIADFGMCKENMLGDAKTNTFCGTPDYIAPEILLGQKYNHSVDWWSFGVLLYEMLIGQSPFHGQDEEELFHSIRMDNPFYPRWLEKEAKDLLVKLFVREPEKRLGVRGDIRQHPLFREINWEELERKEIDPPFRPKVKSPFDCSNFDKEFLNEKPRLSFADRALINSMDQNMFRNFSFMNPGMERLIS

Compound: CC1=C[C@]23C(=O)[C@@H](C=C(CO)[C@@H](O)[C@]2(O)[C@H]1O)[C@H]1[C@@H](C[C@H]3C)C1(C)C [Ingenol]
- reduction of HIV-1 replication rate (HIV-strain pNL4-3): approximately 35%

Compound: C/C=C(/C)C(=O)O[C@H]1C(C)=C[C@]23C(=O)[C@@H](C=C(CO)[C@@H](O)[C@]12O)[C@H]1[C@@H](C[C@H]3C)C1(C)C [PEP005, ingenol-3-angelate]
- increase in adenovirus replication (number of stained cells) (adenovirus 5; 67 ng/mL): 344%
- translocation of PKCγ from cytoplasm to plasma membrane (PKCγ): translocated from the cytoplasm to the plasma membrane
- phagocytosis of fluorescent latex spheres in PBMCs [1]: stimulate phagocytosis
- translocation of PKCα from cytoplasm to plasma membrane (PKCα): translocated from the cytoplasm to the plasma membrane
- number of PKCβ transfected cells with Golgi-like fluorescence (PKCβ): decreases the number of cells
- translocation of PKCβ from cytoplasm to plasma membrane (PKCβ; TPA 100 ng/mL, bryostatin-1 5 pg/mL, PEP003 2.25 μg/mL (5 μM), PEP005 670 μg/mL (1.5 μM)): translocated from the cytoplasm to the plasma membrane
- translocation of PKCζ (PKCζ): fail to induce translocation
- translocation of PKCθ (PKCθ): does not induce any change

Compound: C/C=C(/C)C(=O)O[C@H]1C(C)=C[C@]23C(=O)[C@H](C=C(C)[C@@H](O)[C@]12O)[C@H]1[C@@H](C[C@H]3C)C1(C)C [PEP006, 20-deoxy-ingenol-3-angelate]
- increase in adenovirus replication (number of stained cells) (adenovirus 5; 295 ng/mL): 256%
- phagocytosis of fluorescent latex spheres in PBMCs [1]: stimulate phagocytosis

Compound: C/C=C(/C)C(=O)O[C@H]1C(C)=C[C@]23C(=O)[C@@H](C=C(COC(C)=O)[C@@H](O)[C@]12O)[C@H]1[C@@H](C[C@H]3C)C1(C)C [PEP008, 20-O-acetyl-ingenol-3-angelate]
- survival of melanoma cells [2]: 9%
- increase in adenovirus replication (number of stained cells) (adenovirus 5; 226 ng/mL): 248%
- phagocytosis of fluorescent latex spheres in PBMCs [1]: stimulate phagocytosis
- survival of normal fibroblasts [3]: 100%
- survival of melanoma cells [4]: 12%
- survival of normal fibroblasts [5]: 100%

Compound: CCC/C=C/C=C/C(=O)O[C@H]1/C(=C/C(=O)OC)C[C@H]2C[C@H]([C@@H](C)O)OC(=O)C[C@H](O)C[C@@H]3C[C@H](OC(C)=O)C(C)(C)[C@](O)(C[C@@H]4C/C(=C/C(=O)OC)C[C@H](/C=C/C(C)(C)[C@]1(O)O2)O4)O3 [bryostatin-1]
- translocation of PKCγ from cytoplasm to plasma membrane (PKCγ): not with bryostatin-1
- number of PKCβ transfected cells with Golgi-like fluorescence (PKCβ): decreases the number of cells
- translocation of PKCζ (PKCζ): fail to induce translocation
- translocation of PKCθ (PKCθ): translocated
- induction of respiratory burst (H2O2, DCFH-DA) [6]: All compounds except Bryostatin induced a respiratory burst

- binds to the phorbol ester binding site of PKC [7]: does not
Compound: bisindolylmaleimide

Compound: phosphatidyl serine
- activation of PKC (FIG. 1) (rat brain PKC): strong activation
